Source: ChEMBL document CHEMBL4725421, “SMARCA2/4 PROTAC for Targeted Protein Degradation and Cancer Therapy” (ACS Med Chem Lett, 2020)

Tests used:
Format in all cases: cell-based
[1] = biological target: von Hippel-Lindau disease tumor suppressor/SWI/SNF-related matrix-associated actin-dependent regulator of chromatin subfamily A member 2 (Homo sapiens, UniProt P40337+P51531); test: Protac activity at VHL/SMARCA2 in human A549 cells assessed as induction of SMARCA2 bromodomain degradation using rabbit anti-SMARCA2 antibody incubated for 18 hrs by WES capillary electrophoresis
[2] = biological target: von Hippel-Lindau disease tumor suppressor/SWI/SNF-related matrix-associated actin-dependent regulator of chromatin subfamily A member 2 (Homo sapiens) (UniProt P51531+P40337); test: Protac activity at VHL/SMARCA2 in human A549 cells assessed as induction of SMARCA2 bromodomain degradation using rabbit anti-SMARCA2 antibody incubated for 18 hrs by WES capillary electrophoresis relative to initial level
[3] = biological target: von Hippel-Lindau disease tumor suppressor/SWI/SNF-related matrix-associated actin-dependent regulator of chromatin subfamily A member 4 (Homo sapiens, UniProt P40337+P51532); test: Protac activity at VHL/SMARCA4 in human A549 cells assessed as induction of SMARCA4 bromodomain degradation using anti-SMARCA4 antibody incubated for 18 hrs by WES capillary electrophoresis
[4] = biological target: von Hippel-Lindau disease tumor suppressor/SWI/SNF-related matrix-associated actin-dependent regulator of chromatin subfamily A member 4 (Homo sapiens) (UniProt P51532+P40337); test: Protac activity at VHL/SMARCA4 in human A549 cells assessed as induction of SMARCA4 bromodomain degradation using anti-SMARCA4 antibody incubated for 18 hrs by WES capillary electrophoresis relative to initial level
Chain of von Hippel-Lindau disease tumor suppressor/SWI/SNF-related matrix-associated actin-dependent regulator of chromatin subfamily A member 4 (Homo sapiens) (P40337 whole entry, looked up): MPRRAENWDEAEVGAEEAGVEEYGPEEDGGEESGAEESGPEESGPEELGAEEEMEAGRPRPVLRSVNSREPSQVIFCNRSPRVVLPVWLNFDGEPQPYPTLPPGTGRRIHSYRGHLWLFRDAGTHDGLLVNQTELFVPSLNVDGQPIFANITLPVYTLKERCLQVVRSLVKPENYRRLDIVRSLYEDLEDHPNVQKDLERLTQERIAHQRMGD
Chain of von Hippel-Lindau disease tumor suppressor/SWI/SNF-related matrix-associated actin-dependent regulator of chromatin subfamily A member 4 (Homo sapiens) (P51532 whole entry, looked up): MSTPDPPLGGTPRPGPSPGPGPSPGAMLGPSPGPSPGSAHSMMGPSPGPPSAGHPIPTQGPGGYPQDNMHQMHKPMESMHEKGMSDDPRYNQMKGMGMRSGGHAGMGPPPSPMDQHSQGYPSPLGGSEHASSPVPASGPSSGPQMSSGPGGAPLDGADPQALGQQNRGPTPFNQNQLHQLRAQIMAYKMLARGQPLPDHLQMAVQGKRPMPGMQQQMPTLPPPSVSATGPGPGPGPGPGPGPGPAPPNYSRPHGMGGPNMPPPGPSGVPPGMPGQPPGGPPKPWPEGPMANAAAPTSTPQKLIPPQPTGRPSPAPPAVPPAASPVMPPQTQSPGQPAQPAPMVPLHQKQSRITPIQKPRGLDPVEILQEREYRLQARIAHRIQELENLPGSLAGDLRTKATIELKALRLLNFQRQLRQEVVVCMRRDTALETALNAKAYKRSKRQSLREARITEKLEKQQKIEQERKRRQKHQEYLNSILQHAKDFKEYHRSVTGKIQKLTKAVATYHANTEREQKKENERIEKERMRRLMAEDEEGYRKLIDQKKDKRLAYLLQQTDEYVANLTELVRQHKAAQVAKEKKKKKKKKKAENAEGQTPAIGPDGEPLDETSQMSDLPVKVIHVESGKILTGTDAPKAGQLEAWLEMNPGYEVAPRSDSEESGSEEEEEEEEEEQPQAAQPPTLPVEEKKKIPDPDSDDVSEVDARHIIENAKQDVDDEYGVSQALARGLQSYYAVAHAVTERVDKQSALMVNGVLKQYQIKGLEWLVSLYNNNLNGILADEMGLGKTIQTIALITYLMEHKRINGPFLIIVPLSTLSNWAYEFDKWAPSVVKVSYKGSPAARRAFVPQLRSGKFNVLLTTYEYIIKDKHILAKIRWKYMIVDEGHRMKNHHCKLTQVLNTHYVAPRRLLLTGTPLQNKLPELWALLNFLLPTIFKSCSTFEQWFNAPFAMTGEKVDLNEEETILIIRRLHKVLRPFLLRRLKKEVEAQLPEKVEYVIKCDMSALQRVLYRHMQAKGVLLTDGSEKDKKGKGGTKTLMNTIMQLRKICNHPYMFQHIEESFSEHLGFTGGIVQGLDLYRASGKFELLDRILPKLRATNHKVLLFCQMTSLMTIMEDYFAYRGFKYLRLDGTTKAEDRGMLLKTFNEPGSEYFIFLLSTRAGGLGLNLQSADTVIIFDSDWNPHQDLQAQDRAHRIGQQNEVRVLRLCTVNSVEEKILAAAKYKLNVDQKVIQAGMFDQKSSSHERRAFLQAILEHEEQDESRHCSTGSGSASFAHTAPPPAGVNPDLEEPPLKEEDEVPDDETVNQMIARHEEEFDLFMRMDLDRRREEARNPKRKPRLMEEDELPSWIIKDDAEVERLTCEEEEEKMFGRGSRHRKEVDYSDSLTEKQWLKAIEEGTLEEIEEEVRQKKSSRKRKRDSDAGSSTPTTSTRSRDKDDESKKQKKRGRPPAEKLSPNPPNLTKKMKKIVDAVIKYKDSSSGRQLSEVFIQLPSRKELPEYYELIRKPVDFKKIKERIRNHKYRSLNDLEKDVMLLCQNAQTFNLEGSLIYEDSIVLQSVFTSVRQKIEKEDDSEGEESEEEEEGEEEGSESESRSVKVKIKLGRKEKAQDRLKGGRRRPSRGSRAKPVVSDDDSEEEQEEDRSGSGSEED

Chain of von Hippel-Lindau disease tumor suppressor/SWI/SNF-related matrix-associated actin-dependent regulator of chromatin subfamily A member 2 (Homo sapiens) (P40337 whole entry, looked up): as the sequence (P40337 whole entry, looked up) above
Chain of von Hippel-Lindau disease tumor suppressor/SWI/SNF-related matrix-associated actin-dependent regulator of chromatin subfamily A member 2 (Homo sapiens) (P51531 whole entry, looked up): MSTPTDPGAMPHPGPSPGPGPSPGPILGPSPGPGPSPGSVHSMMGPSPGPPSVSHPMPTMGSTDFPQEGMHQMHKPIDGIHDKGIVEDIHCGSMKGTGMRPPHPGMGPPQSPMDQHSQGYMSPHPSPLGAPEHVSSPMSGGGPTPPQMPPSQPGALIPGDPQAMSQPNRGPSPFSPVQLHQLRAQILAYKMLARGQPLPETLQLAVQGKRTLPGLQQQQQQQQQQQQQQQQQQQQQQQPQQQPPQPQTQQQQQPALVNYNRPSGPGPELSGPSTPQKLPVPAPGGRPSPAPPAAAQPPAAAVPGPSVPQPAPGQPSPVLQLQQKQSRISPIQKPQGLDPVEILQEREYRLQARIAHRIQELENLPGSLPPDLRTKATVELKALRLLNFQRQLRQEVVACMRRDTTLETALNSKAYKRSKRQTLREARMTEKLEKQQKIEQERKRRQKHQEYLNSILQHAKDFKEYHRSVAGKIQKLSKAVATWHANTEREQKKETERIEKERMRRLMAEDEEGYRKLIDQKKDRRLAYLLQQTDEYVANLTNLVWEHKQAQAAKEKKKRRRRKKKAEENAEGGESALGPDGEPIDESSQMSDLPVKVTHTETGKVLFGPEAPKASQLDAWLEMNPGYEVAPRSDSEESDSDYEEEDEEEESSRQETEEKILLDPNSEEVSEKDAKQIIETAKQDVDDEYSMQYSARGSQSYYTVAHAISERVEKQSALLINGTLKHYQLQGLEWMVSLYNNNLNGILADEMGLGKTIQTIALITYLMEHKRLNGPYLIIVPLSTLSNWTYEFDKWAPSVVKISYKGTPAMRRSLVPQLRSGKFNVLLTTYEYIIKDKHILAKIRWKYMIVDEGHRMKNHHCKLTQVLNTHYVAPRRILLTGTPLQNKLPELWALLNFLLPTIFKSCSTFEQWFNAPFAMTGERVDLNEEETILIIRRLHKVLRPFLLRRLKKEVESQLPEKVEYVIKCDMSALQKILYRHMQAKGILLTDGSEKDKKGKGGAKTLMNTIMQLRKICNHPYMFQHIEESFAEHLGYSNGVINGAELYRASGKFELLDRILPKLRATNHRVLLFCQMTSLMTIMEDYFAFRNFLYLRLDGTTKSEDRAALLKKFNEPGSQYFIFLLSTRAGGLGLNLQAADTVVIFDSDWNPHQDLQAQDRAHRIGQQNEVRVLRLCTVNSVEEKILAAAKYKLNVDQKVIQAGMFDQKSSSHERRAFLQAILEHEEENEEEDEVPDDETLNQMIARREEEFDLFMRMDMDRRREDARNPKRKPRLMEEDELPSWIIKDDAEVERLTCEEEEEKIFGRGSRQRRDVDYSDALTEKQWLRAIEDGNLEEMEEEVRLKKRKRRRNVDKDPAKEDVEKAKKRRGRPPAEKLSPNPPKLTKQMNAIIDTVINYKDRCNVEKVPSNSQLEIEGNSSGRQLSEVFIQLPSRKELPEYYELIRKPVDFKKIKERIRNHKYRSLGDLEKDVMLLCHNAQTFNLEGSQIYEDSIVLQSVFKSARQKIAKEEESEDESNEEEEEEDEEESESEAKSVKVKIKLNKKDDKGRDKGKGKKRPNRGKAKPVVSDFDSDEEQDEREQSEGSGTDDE
Chain of von Hippel-Lindau disease tumor suppressor/SWI/SNF-related matrix-associated actin-dependent regulator of chromatin subfamily A member 4 (P51532 whole entry): as the sequence (P51532 whole entry, looked up) above
Chain of von Hippel-Lindau disease tumor suppressor/SWI/SNF-related matrix-associated actin-dependent regulator of chromatin subfamily A member 4 (P40337 whole entry): as the sequence (P40337 whole entry, looked up) above
Chain of von Hippel-Lindau disease tumor suppressor/SWI/SNF-related matrix-associated actin-dependent regulator of chromatin subfamily A member 2 (P51531 whole entry): as the sequence (P51531 whole entry, looked up) above
Chain of von Hippel-Lindau disease tumor suppressor/SWI/SNF-related matrix-associated actin-dependent regulator of chromatin subfamily A member 2 (P40337 whole entry): as the sequence (P40337 whole entry, looked up) above

EC50 [1] [µM]	Emax [2] [%]	EC50 [3] [µM]	Emax [4] [%]	Structure (SMILES)
0.058	90	0.025	92	Cc1ncsc1-c1ccc(CNC(=O)[C@@H]2C[C@@H](O)CN2C(=O)[C@@H](NC(=O)C2(F)CC2)C(C)(C)C)c(OCCCc2ccc(CN3CCN(c4cc(-c5ccccc5O)nnc4N)CC3)cc2)c1
0.026	99	0.016	100	Cc1ncsc1-c1ccc(CNC(=O)[C@@H]2C[C@@H](O)CN2C(=O)[C@@H](NC(=O)C2(F)CC2)C(C)(C)C)c(OCCCOc2ccc(CN3CCN(c4cc(-c5ccccc5O)nnc4N)CC3)cc2)c1
0.012	98	0.016	97	Cc1ncsc1-c1ccc(CNC(=O)[C@@H]2C[C@@H](O)CN2C(=O)[C@@H](NC(=O)C2(F)CC2)C(C)(C)C)c(OCCOc2ccc(CN3CCN(c4cc(-c5ccccc5O)nnc4N)CC3)cc2)c1
0.055	95	0.033	95	Cc1ncsc1-c1ccc(CNC(=O)[C@@H]2C[C@@H](O)CN2C(=O)[C@@H](NC(=O)C2(F)CC2)C(C)(C)C)c(OCCc2ccc(CN3CCN(c4cc(-c5ccccc5O)nnc4N)CC3)c(F)c2)c1
0.041	99	0.026	99	Cc1ncsc1-c1ccc(CNC(=O)[C@@H]2C[C@@H](O)CN2C(=O)[C@@H](NC(=O)C2(F)CC2)C(C)(C)C)c(OCCc2ccc(OCCN3CCN(c4cc(-c5ccccc5O)nnc4N)CC3)cc2)c1
0.067	91	0.117	93	Cc1ncsc1-c1ccc(CNC(=O)[C@@H]2C[C@@H](O)CN2C(=O)[C@@H](NC(=O)C2(F)CC2)C(C)(C)C)c(OCCc2ccc(CN3CCN(c4cc(-c5ccccc5O)nnc4N)CC3)cc2)c1
